Where two headings read alike, the source gives them in different places.
Experiments:
[1] = target: T1, recombinant ASK1 (Homo sapiens, UniProt Q99683); experiment: ASK1 Biochemical Assay (HTRF KinEASE-STK S3)
T1 construct: purchased Carna Biosciences
In short: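 Recombinant ASK1 (5 ng) preincubated with compound 1 h at 23 °C in MOPS pH 7 buffer with Mg-acetate, DTT, NP40, glycerol, BSA and 1% DMSO. Inhibition calculated against vehicle after substrate-blank subtraction.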

[2] = target: T2, ASK2 (Homo sapiens, UniProt O95382); experiment: ASK2 biochemical assay (selectivity assay); conditions: ATP 100 μM
T2 construct: purchased Carna Biosciences
T2 sequence (O95382 1-1288): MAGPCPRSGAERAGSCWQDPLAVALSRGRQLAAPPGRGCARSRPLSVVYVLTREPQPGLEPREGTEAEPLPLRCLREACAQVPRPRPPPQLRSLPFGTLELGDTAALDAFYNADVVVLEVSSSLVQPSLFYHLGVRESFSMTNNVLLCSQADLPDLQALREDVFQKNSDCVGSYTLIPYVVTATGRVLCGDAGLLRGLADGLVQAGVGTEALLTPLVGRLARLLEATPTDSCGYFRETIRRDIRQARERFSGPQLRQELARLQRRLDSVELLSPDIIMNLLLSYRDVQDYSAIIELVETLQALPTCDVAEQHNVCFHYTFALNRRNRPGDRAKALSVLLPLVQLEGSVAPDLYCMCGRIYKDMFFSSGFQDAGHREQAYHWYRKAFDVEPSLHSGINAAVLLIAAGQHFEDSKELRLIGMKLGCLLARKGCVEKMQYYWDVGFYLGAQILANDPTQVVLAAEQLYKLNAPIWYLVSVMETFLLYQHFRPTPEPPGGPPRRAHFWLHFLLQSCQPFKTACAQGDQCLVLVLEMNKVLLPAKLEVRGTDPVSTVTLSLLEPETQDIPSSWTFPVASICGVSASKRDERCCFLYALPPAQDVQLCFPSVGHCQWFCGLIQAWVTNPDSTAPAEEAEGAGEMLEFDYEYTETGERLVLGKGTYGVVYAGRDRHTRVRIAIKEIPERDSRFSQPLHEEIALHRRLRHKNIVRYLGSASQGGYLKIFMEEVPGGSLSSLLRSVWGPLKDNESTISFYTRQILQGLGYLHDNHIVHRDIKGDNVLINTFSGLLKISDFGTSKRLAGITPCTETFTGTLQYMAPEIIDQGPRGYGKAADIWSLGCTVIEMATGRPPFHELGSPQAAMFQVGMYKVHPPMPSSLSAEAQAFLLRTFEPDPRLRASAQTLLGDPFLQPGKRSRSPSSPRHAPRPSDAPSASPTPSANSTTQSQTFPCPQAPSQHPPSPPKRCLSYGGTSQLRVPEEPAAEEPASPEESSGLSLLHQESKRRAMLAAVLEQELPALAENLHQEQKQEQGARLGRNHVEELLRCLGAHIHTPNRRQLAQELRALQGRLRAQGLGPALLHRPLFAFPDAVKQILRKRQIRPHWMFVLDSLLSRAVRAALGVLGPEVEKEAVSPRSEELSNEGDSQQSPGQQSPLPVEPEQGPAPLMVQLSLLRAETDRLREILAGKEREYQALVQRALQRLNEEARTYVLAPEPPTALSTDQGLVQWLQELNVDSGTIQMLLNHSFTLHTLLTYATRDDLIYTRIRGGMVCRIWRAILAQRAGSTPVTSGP
Method: ASK2 assay was performed to evaluate above mentioned example for its selectivity towards ASK1 with respect ASK 2.
ASK2 biochemical assay was standardized using ASK2 (Carna Biosciences), MBP biotin conjugate (Merk life science), ATP, streptavidin surelight APC (PerkinElmer) and Lance Eu-W1024-antiphospho threonine (PerkinElmer). Enzyme concentration, ATP, MBP biotin conjugate and antibodies were titrated for enzyme assay. Assay was carried out in freshly prepared ASK2 kinase buffer, 5 mM MOPS pH-7.2, 2.5 mM β-glycerophosphate, 5 mM magnesium chloride (MgCl2), 1 mM EGTA, 0.4 mM EDTA, 0.05 mM DTT and 0.05% BSA. DMSO was used as vehicle control with a final concentration of 1%. A 40 ng of ASK2 enzyme was incubated with compound for 1 hour at 23° C. on a shaker at 100rpm. ATP and MBP biotin conjugate (as substrate) was added at a final concentration of 100 μM and 0.1mg/ml respectively and incubated for 3 hours at 23° C. on a shaker at 100rpm. Detection reagents streptavidin surelight APC (55.56nM), lance Eu-W1024-antiphospho threonine antibody (1.11nM) and 1X lance detection buffer were added and incubated for 2 hour at room temperature on a shaker at 100rpm. Delta F ratios were calculated from data obtained at excitation (337 nm) and emission wavelengths (665 nm and 620-10 nm). Substrate blank values were considered as negative control. Values from negative control were subtracted from vehicle control and compound treated wells. Enzyme inhibition by compounds was calculated from vehicle controls, which represent uninterrupted enzyme's activity.

[3] = ATP 100 μM, read-out: Biochemical Assay IC50
[4] = comparison with Selonsertib, read-out: ASK1 biochemical Assay (IC50)
[5] = selectivity table, read-out: ASK1 Biochemical Assay IC50

T1 sequence (Q99683 654-971 limits assumed): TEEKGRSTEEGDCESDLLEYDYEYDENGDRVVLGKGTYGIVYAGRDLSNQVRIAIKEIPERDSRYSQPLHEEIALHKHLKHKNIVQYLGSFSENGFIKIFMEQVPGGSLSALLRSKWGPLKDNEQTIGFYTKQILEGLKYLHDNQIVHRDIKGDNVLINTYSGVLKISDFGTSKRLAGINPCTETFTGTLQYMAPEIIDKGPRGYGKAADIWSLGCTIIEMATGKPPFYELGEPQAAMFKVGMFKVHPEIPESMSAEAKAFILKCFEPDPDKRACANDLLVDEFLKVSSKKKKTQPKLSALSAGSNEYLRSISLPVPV

Row | SMILES | IC50 [1, 3] | IC50 [1, 4] | IC50 [1, 5] | IC50 [2]
1 | CC(C)n1cnnc1-c1cccc(N2CCN(c3ccc(N4CCOCC4)cc3)C2=O)n1 [Example 1043, 1-(6-(4-isopropyl-4H-1,2,4-triazol-3-yl)pyridin-2-yl)-3-(4-morpholinophenyl)imidazolidin-2-one] | < 100 nM | 4.1 nM | 4.1 nM | > 10000 nM
2 | CC(C)n1cnnc1-c1cccc(N2CCN(c3ccc(N4CC(C#N)C4)cc3)C2=O)n1 [Example 1071, 1-(4-(3-(6-(4-isopropyl-4H-1,2,4-triazol-3-yl)pyridin-2-yl)-2-oxoimidazolidin-1-yl)phenyl)azetidine-3-carbonitrile] | < 100 nM | 3.8 nM | 3.8 nM | > 10000 nM
3 | CNC(=O)C1CCN(c2ccc(N3CCN(c4cccc(-c5nncn5C(C)C)n4)C3=O)cc2)CC1 [Example 1082, 1-(4-(3-(6-(4-isopropyl-4H-1,2,4-triazol-3-yl)pyridin-2-yl)-2-oxoimidazolidin-1-yl)phenyl)-N-methylpiperidine-4-carboxamide] | < 50 nM | 1 nM | 1 nM | 8500 nM
4 | CC(C)n1cnnc1-c1cccc(N2CCN(c3ccc(N4CCC(C(=O)N(C)C)CC4)cc3)C2=O)n1 [Example 1097, 1-(4-(3-(6-(4-isopropyl-4H-1,2,4-triazol-3-yl)pyridin-2-yl)-2-oxoimidazolidin-1-yl)phenyl)-N,N-dimethylpiperidine-4-carboxamide] | < 50 nM | 3.8 nM | 3.8 nM | 7900 nM

— US20220332700A1, “NOVEL APOPTOSIS SIGNAL-REGULATING KINASE 1 INHIBITORS” (MANKIND PHARMA LTD, priority 2019, published 2022)
